One assay deals with hRpn13 Pru. Description: 1H-15N HSQC NMR, DTT versus TCEP in buffer. It is filed as binding, human. To be noted: 1 mM DTT or TCEP, 15N-hRpn13 Pru, 25 °C, 850 MHz. An excerpt: Although DTT is trapped bound to C88 in the crystal, we expected that its interaction with hRpn13 in solution is likely to be transient and dynamic. Nonetheless, we tested whether NMR spectroscopy could detect differences between hRpn13 Pru dissolved in buffer containing DTT versus TCEP. We used previously obtained NMR resonance assignments[13] and 2D ^1H-^15N HSQC experiments to detect the hRpn13 amide signals, which are sensitive to changes in their chemical environment, for ^15N-labeled hRpn13 Pru with either 1 mM DTT or TCEP present in the buffer. […] C60 and C80 by contrast show no spectral perturbations (Supplementary Fig. 8a).
All ^1H-^15N HSQC experiments were acquired on samples dissolved in NMR buffer (20 mM sodium phosphate, pH 6.5, 50 mM NaCl, 1 mM TCEP, 10% D2O) unless specified, in which case 2 mM DTT replaced TCEP. The samples were purified in DTT-containing buffer and then exchanged into NMR buffer by using Zeba Protein Desalting columns (Thermo Fisher Scientific). The pH was measured and adjusted to 6.5. […] The data were processed by NMRpipe[46] (version 11.5) and spectra visualized and analyzed with NMR-FAM-SPARKY[47] (version 3.190) by using previous chemical shift assignments[12],[23] and NMRbox[48]. The amide nitrogen and hydrogen chemical shift perturbations (CSP) were mapped for each amino acid according to Eq. 1.1 CSP=0.2ΔδN2+ΔδH2 […]

Assay [1] has as its system hRpn13 F76 arginine substitution. To be noted: cited from earlier work.

`O[C@@H](CS)[C@@H](O)CS` (racemic) [DTT, dithiothreitol]: the “HSQC signal shifting, DTT versus TCEP” value in the assay with hRpn13 Pru is “slight signal shifting, including for C88”.

Regarding ubiquitin, the “hRpn13 binding to ubiquitin on arginine substitution of F76” value in assay [1] is listed as “abolishes hRpn13 binding to ubiquitin”.

(Values after paper PMC12218921, “An adaptive peptide-binding site in ubiquitin receptor hRpn13 revealed by structural studies” (Nature Communications, 2025).)
